Experiments:
skin = assay: Skin weight test, 10 days of topical treatment in the rat; assay type: in vivo, Male Sprague-Dawley rats; settings: for Wet skin weight, Treated, Decrease / Wet skin weight, Untreated, Decrease: percent decrease of the control; for Wet skin weight, Treated, Decrease: treated flank; for Wet skin weight, Untreated, Decrease: untreated flank; for Body wt. gain / Thymus wt. / Wet skin weight, Treated / Wet skin weight, Untreated: topical 0.1%, 10 days; for Body wt. gain / Thymus wt.: daily dose 30 μg; for Thymus wt. / Wet skin weight, Treated / Wet skin weight, Untreated: mean ± S.E.; for Wet skin weight, Treated: treated left flank; for Wet skin weight, Treated / Wet skin weight, Untreated: 30 μg daily; for Wet skin weight, Untreated: untreated right flank
Protocol: Male Sprague-Dawley rats, weighing about 210 g, were lightly anesthetized with ether, shaved and marked in three areas on each flank with intradermally injected blue ink. […] Treated control animals received daily topical administration of the vehicle (DMF) alone. Solvent and test compound solutions (10 μL) were applied once daily for 10 consecutive days, with […] necessary. On the eleventh day, the animals were sacrificed, their skins were removed and 16 mm diameter plugs were punched out from each area. The plugs were scraped carefully to remove subcutaneous fat and muscle, then they were blotted on filter paper and weighed. Skin atrophy is a known side effect associated with topically applied anti-inflammatory steroids.

granuloma / thymolysis = assay: Comparison of local effect and systemic side-effects (therapeutic index); assay type: in vivo, rat; settings: granuloma relative potency / thymolysis relative potency
Protocol: The test compound was dissolved in acetone and aliquots of varying concentrations were injected into cotton pellets. The pellets were dried and then one pellet was implanted beneath the skin of each test rat. Six days later, the animals were sacrificed and the granulation tissue (granuloma) which formed in and around the implanted pellet was removed, dried and weighed. In addition, the thymi and adrenals were removed and weighed.
(§1) Several further studies were undertaken to determine the effects of a selected compound of the invention and prior art steroids on thymi weights in rats when the drugs were systemically administered. In each of these studies, male Sprague-Dawley rats were used. The test compounds were suspended in 0.5% CMC (carboxymethylcellulose) and injected subcutaneously once daily for three days. On the fifth day (48 hours following the last treatment), the animals were sacrificed and the thymi weights were recorded. Body weight gains were measured 24 hours after the last treatment.
The ED50 's calculated for the local cotton pellet granuloma assay and the TED40 's calculated on the basis of thymus inhibition testing as described above were used to arrive at relative potency and a therapeutic index for a representative species of the invention as compared to prior art steroids.

thymi = system: thymi; parameters: species or system male Sprague-Dawley rats; settings: rat, in vivo, sc
Protocol: as §1, with “treatment. From the test results, the TED40 's (thymolytic effective doses, that is, doses required to achieve 40% inhibition of thymi weight) and relative potencies of a representative compound of the invention and reference steroids were calculated. […] It is evident that the higher the inhibition of thymus activity at a given dose, the more toxic the compound is.” for “treatment.”

[1] = molecular target: T1, rat lung glucocorticoid receptor (Rattus norvegicus, UniProt P06536); assay: Receptor binding studies ([3H]triamcinolone acetonide displacement); settings: further receptor binding studies (Table X); dexamethasone = 100; * mean ± SE of 3-5 results
T1 construct: Immediately after resection of the lungs, the tissue was frozen in ice; The cytosol was prepared; from tissue; host or cells: lung cytosol of adrenalectomized male Sprague-Dawley rats
T1 sequence (P06536 1-795): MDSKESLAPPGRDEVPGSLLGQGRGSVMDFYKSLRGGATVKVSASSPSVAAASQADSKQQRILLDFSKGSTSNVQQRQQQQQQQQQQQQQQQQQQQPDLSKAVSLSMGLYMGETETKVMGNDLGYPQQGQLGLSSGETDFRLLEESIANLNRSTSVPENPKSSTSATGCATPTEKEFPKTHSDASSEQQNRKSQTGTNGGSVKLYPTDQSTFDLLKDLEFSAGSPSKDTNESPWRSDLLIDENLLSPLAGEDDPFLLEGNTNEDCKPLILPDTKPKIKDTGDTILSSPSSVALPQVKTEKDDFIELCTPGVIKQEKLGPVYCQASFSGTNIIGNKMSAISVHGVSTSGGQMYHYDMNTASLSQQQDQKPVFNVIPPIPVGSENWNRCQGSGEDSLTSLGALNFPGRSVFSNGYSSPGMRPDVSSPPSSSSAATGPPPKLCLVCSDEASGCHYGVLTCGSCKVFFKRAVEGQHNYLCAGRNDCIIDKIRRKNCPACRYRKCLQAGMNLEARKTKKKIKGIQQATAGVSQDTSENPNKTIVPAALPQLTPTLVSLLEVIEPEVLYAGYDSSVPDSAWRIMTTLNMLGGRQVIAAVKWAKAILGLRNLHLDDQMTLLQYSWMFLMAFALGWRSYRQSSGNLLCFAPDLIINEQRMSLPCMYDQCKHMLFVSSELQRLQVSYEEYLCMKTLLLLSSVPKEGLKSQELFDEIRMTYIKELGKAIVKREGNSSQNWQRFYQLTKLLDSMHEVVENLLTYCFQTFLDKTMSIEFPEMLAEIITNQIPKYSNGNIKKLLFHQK
Protocol: Male Sprague-Dawley rats, each weighing 150 to 200 g, were used 6 days after adrenalectomy. Rats were sacrificed by decapitation. Immediately after resection of the lungs, the tissue was frozen in ice. […] Portions (5 ml) of the cytosol were frozen in liquid nitrogen and stored at -80° C.
The cytosol was thawed in a water bath and diluted with 1 part of incubation buffer containing a 15 mM concentration of diisopropyl fluorophosphate. […] After a 2 hour incubation period at room temperature (24° C.), the unbound steroid was removed by addition of a 2% suspension of activated charcoal in incubation buffer (400 μL). The mixture was incubated for 5 minutes at room temperature and then was centrifuged at about 10,000 g for 3 minutes in the microcentrifuge. The radioactivity (cpm) in the supernatant (400 μL) was determined by liquid scintillation counting.
The data is fitted to the following logistic function:
B=T-T * C^N /(C^N +IC50^N)+NS,
where B=CPM in the presence of competitor, T=CPM in the absence of competitor, C=competitor concentration, N=Hill slope factor, and NS=cpm under non-specific binding conditions.
For the representative compound of the invention B, receptor binding affinity was investigated with and without Δ^1 -cortienic acid in the incubation solution to study the effect of Δ^1 -cortienic acid on the receptor binding.
Further studies to evaluate the relative receptor binding affinities of compounds of the invention, other compounds of formula (VII) hereinabove and well-known anti-inflammatory steroids were undertaken, using the methods described in the RECEPTOR BINDING STUDIES set forth above. […] For comparison purposes, the following compounds having formula (VII) above were also tested: […]

[2] = system: forearms of a human volunteer; assay: Further human vasoconstriction testing, Method 1; assay type: in vivo
Protocol: The mixtures, in 50 μL amounts, were applied to circular patches (8 mm diameter). After evaporation of ethanol, the patches were applied to the forearms of a human volunteer, and covered with a water impervious film for 3 hr. The intensity of vasoconstriction (scale 0-4) was judged at various time intervals after removal of the patches. The grading scale was as follows: 0, normal skin; 1, slight pallor of indistinct outline; 2, pallor with at least two corners outlined; 3, even pallor with a clear outline of the application sites; 4, very intense pallor. The skin tests (2-4 tests on each compound) were performed on the same person.

in vitro = in vitro ADME; settings: rat, lung cytosol
Protocol: To determine that the compounds of the invention can be stable during the incubation period, the test compounds A, B, C, and D were investigated for their stabilities at the incubation conditions, which are room temperature and 2 hours, for receptor binding studies. The frozen cytosol which was made for the receptor binding study was thawed in a water bath and diluted with 1 part of incubation buffer (10 mM Tris/HCl, 10 mM sodium molybdate, and 2 mM 1,4-dithiothreitol) containing a 15 mM concentration of enzyme inhibitor, diisopropyl fluorophosphate. Portions (560 μL) of the diluted cytosol were added to centrifuge tubes containing 80 μL portions of blank incubation buffer instead of volume of tracer ([^3 H]triamcinolone acetonide) which would be used in the receptor binding study (RBS), 80 μL of solution of a Δ^1 -cortienic acid (0.1 mM) in buffer (the final concentration of Δ^1 -cortienic acid in the incubation medium was […]), and 80 μL of 100,000 nM of concentrations of test compounds in ethanol to give a final concentration of 10,000 nM. This mixture was kept at room temperature for 2 hours. Samples of 0.1 mL were taken at appropriate time intervals (0, 0.5, 1, 1.5, 2 hours) and were mixed with 0.2 mL of acetonitrile containing 5% DMSO. Each mixture was centrifuged and the supernatant were injected in the HPLC.
Male Sprague-Dawley rats, each weighing 150 to 200 g, were used 6 days after adrenalectomy. Rats were sacrificed by decapitation. Immediately after resection of the lungs, the tissue was frozen in ice. The cytosol was prepared using a slight modification of a previously described method (Dahlberg, 1984); After addition of 6 volumes of ice-cold incubation buffer (10 mM Tris/HCl, 10 mM sodium molybdate, and 2 mM 1,4-dithiothreitol), the tissue was homogenized with the Virtis 45 homogenizer at full speed, for 4 periods of 10 seconds with a 10-second cooling period between each step. The homogenate was centrifuged at 35,000 g for 1 hour at 4° C. in a Beckman ultracentrifuge L8-70M equipped with a T170 rotor. Portions (5 ml) of the cytosol were frozen in liquid nitrogen and stored at -80° C.

[3] = 24 Hours, 1 hour re-occlusion at 20-21 hours, 0.01 mM
[4] = 24 Hours, 1 hour re-occlusion at 20-21 hours, 0.05 mM
[5] = 24 Hours, 1 hour re-occlusion at 20-21 hours, 0.1 mM
[6] = 24 Hours, 1 hour re-occlusion at 20-21 hours, 0.5 mM

SMILES	Wet skin weight, Treated, Decrease (skin) [%]	Wet skin weight, Untreated, Decrease (skin) [%]	RBA [1]	Vasoconstriction activity ([2]; 3 Hours, 0.01 mM)	Vasoconstriction activity ([2]; 3 Hours, 0.05 mM)	Vasoconstriction activity ([2]; 3 Hours, 0.1 mM)	Vasoconstriction activity ([2]; 3 Hours, 0.5 mM)	Vasoconstriction activity ([2]; 3 Hours, 1 mM)	Vasoconstriction activity ([2]; 3 Hours, 5 mM)	Vasoconstriction activity ([2]; 20 Hours, 0.01 mM)	Vasoconstriction activity ([2]; 20 Hours, 0.05 mM)	Vasoconstriction activity ([2]; 20 Hours, 0.1 mM)	Vasoconstriction activity ([2]; 20 Hours, 0.5 mM)	Vasoconstriction activity ([2]; 20 Hours, 1 mM)	Vasoconstriction activity ([2]; 20 Hours, 5 mM)	Vasoconstriction activity [2, 3]	Vasoconstriction activity [2, 4]	Vasoconstriction activity [2, 5]	Vasoconstriction activity [2, 6]	remaining at 2 h (in vitro) [%]	further results
CCC(=O)O[C@]1(C(=O)CCl)[C@@H](C)C[C@H]2[C@@H]3CCC4=CC(=O)C=C[C@]4(C)[C@@]3(F)[C@@H](O)C[C@@]21C [Clobetasol 17-propionate]	21.2	19.2	–	–	–	–	–	–	–	–	–	–	–	–	–	–	–	–	–	–	Body wt. gain (skin): 24.2 ± 2.3 g; Thymus wt. (skin): 190 ± 14 mg; Wet skin weight, Treated (skin): 78.2 mg; Wet skin weight, Untreated (skin): 67.6 ± 6.2 mg; Therapeutic Index (a/b) (granuloma / thymolysis): 1.54; Thymolysis, Relative Potency at ED40 Level (b) (thymi): 1927
CCOC(=O)[C@@]1(OC(=O)CC)CC[C@H]2[C@@H]3CCC4=CC(=O)C=C[C@]4(C)[C@H]3[C@@H](O)C[C@@]21C [Compound P, reference compound]	–	–	38	0	0	0	1	2	3	0	0	0	0	1	1	0	0	1	2	> 90	–
CCOC(=O)[C@@]1(OC(=O)CCl)CC[C@H]2[C@@H]3CCC4=CC(=O)C=C[C@]4(C)[C@H]3[C@@H](O)C[C@@]21C [Compound R, ethyl 17α-chloroacetoxy-11β-hydroxyandrosta-1,4-dien-3-one-17β-carboxylate]	–	–	22	0	0	0	1	1	1	0	0	0	0	0	0	0	0	0	0	30	–
CCCC(=O)O[C@]1(C(=O)CO)CC[C@H]2[C@@H]3CCC4=CC(=O)CC[C@]4(C)[C@H]3[C@@H](O)C[C@@]21C [Hydrocortisone 17-butyrate]	13.1	14.0	–	–	–	–	–	–	–	–	–	–	–	–	–	–	–	–	–	–	Body wt. gain (skin): 45.7 ± 10.6 g; Thymus wt. (skin): 540 ± 61 mg; Wet skin weight, Treated (skin): 86.3 ± 1.5 mg; Wet skin weight, Untreated (skin): 72.0 ± 4.7 mg; Therapeutic Index (a/b) (granuloma / thymolysis): 1.23; Thymolysis, Relative Potency at ED40 Level (b) (thymi): 57
CCOC(=O)[C@@]1(OC(=O)C(C)Cl)CC[C@H]2[C@@H]3CCC4=CC(=O)C=C[C@]4(C)[C@H]3[C@@H](O)C[C@@]21C (stereo partly drawn) [Q, ethyl 17α-(α-chloro)propionyloxy-11β-hydroxyandrosta-1,4-dien-3-one-17β-carboxylate]	–	–	88	0	0	0	1	1	3	0	0	0	1	1	1	0	0	1	2	> 90	–
